Values after ≈ are worked out from the molar mass of the structure shown.

One compound from patent US11364203B2, “Process for forming active domains dispersed in a matrix” (Bend Research, Inc., priority 2014, dated 2022) can be followed below.

One data set is described as follows: Solubility in acetone. The class given is physicochemical. The conditions noted are these: acetone at 25° C.
A short description of a further data set: Solubility in water. The class given is physicochemical.

What is called solubility is the concentration that dissolves in the medium under given conditions. High values mean much dissolved substance, low ones little dissolved substance. Take `CCC(=O)O[C@]1(C(=O)SCF)[C@H](C)C[C@H]2[C@@H]3C[C@H](F)C4=CC(=O)C=C[C@]4(C)[C@@]3(F)[C@@H](O)C[C@@]21C` [Fluticasone, (6S,8S,9R,10S,11S,13S,14S,16R,17R)-6,9-difluoro-17-(((fluoromethyl)thio)carbonyl)-11-hydroxy-10,13,16-trimethyl-3-oxo-6,7,8,9,10,11,12,13,14,15,16,17-dodecahydro-3H-cyclopenta[a]phenanthren-17-yl propionate]: the solubility in acetone in “Solubility in acetone” worked out at 9000 µg/mL (≈ 18 mM). Also, the “solubility in water (in words)” value in “Solubility in water” (water) was “practically insoluble in water”. Also, the solubility in the data set “Solubility in water” (water at 25° C.) is below 1 µg/mL.
